From patent publication US12122802B2, “D-allose crystal and production method thereof” (MATSUTANI CHEMICAL INDUSTRY CO., LTD., priority 2019, dated 2024)

Assays:
Format in all cases: physicochemical
[1] = aspect ratio of crystals from microscopic picture (Digital microscope VHX-5000, 50x)
Description: The “anhydrous D-allose crystals” of the present invention have an extremely large average particle size as described above and are not in a fine needle form, having a characteristic aspect ratio of the crystal. In the present invention, the aspect ratio refers to the ratio of the long diameter to the short diameter of a crystal (short diameter: minimum length of lines passing through the center of gravity of the plane shape of a crystal, long diameter: maximum length of a crystal measured orthogonal to the short diameter). In the present specification, the aspect ratio in a numerical range from A to B (A and B: arbitrary numbers) means that all of the aspect ratios of a specified number (preferably at least 10, for example 10) of crystal particles randomly selected are within the numerical range. Example of random selection of crystal particles includes a method comprising taking a microscopic picture of crystals at 20× to 50× magnification and, from the crystals on the diagonal line drawn from the upper left to the lower right of the microscopic picture taken, selecting 10 crystals with a full body shown in order from the upper left on the diagonal line. Specifically, the aspect ratio is preferably 1.0 to 10.0, more preferably 2.0 to 8.0, still more preferably 2.0 to 7.0. Next, the aspect ratio of the anhydrous D-allose crystals of the present invention was examined. Specifically, a microscopic picture of each of the anhydrous D-allose crystals obtained in the previous Test Nos. 1 to 5, 7 to 10 and 12 were taken using “Digital microscope VHX-5000” manufactured by KEYENCE Corporation (50×magnification). Among the crystals on the diagonal line drawn from the upper left to the lower right of the microscopic picture taken, 10 crystals with a full picture shown were selected in order from the upper left and then the long diameter and the short diameter of each crystal were measured for calculation of the aspect ratio (Long diameter/Short diameter, wherein short diameter refers to minimum length of lines passing through the center of gravity of the plane shape of a crystal, and long diameter refers to maximum length of a crystal measured orthogonal to the short diameter). The minimum value of the aspect ratio was 1.1 and the maximum value was 9.6 (Table 9).

[2] = particle size distribution by laser diffraction (Mastersizer 3000, dry dispersion unit Aero S); details: average of 5 measurements, dispersion pressure 1.0 bar
Description: The melting point (Tm) in the DSC refers to the melting start temperature of the endothermic peak obtained by DSC measurement (temperature at the extrapolated intersection of the base line and the maximum slope line of the endothermic peak), and the melting enthalpy (ΔH) refers to the area of the endothermic peak (ASTM D3418-15, Standard Test Method for Transition Temperatures and Enthalpies of Fusion and Crystallization of Polymers by Differential Scanning calorimetry). Further, in the present invention, the average particle size refers to the volume-based average particle size d[4,3], which is usually measured with a laser diffraction particle size distribution analyzer.
Next, the particle size distribution of the anhydrous D-allose crystals of the present invention was examined. Specifically, the anhydrous D-allose crystals obtained in the previous Test Nos. 1 to 5, 7 to 10 and 12, were subjected to measurement of particle size distribution under the measurement conditions shown in Table 7 using “Mastersizer 3000” and a “dry dispersion unit Aero S” manufactured by Malvern Instruments. More specifically, the measurement was repeated 5 times, and the average value of the 5 times measurements was used. No great variability was seen among the 5 times measurement values. The particle size distribution was expressed on a volume basis, and the volume-based average particle size d[4,3] and standard deviation σ were recorded. Also, the coefficient of variation CV=σ/d[4,3] was calculated in order to relatively evaluate the variation in the particle size distribution.

[3] = repose angle measured by powder tester PT-E (fluidity of anhydrous D-allose crystals); details: for Repose angle (degrees): anhydrous crystals of Test Nos. 1 to 12, hydrous crystals dried with evaporator (30° C., 20 hPa (abs), about 2 hours), average of three directions
Experimental: The fluidity of the anhydrous D-allose crystals obtained by drying the hydrous crystals obtained in each of Tests Nos. 1 to 12 with an evaporator (30° C., 20 hPa (abs), about 2 hours) as described above was evaluated by the repose angle measured by a powder tester PT-E (manufactured by Hosokawa Micron Corporation). Specifically, a sample was dropped and deposited on a disk, and the inclination angle was measured from three directions to obtain an average value. From the average value, the degree of fluidity was evaluated according to Table 1 in the Japanese Pharmacopoeia, 17th edition, Reference Information G2 physical property-related “Powder Fluidity” (same as the so-called Carr's fluidity index table, shown as Table 4).
In order to measure the water content in the crystals obtained by each of the drying methods, drying under reduced pressure under conditions at 70° C. for 18 hours was performed to calculate the water content in the crystals from the weight loss through the drying under reduced pressure. The repose angle was measured by the method described above to determine the degree of fluidity. The yield rate was calculated by the following expression. Yield rate (%)=(D/C)×100 [Expression 4]

O=C[C@H](O)[C@H](O)[C@H](O)[C@H](O)CO [Test No. 1, D-allose]
Aspect ratio (Long diameter/Short diameter) ([1]; crystal ① of 10 selected, listed as 1): 3.5 | Aspect ratio (Long diameter/Short diameter) ([1]; crystal ② of 10 selected, listed as 1): 3.4 | Aspect ratio (Long diameter/Short diameter) ([1]; crystal ③ of 10 selected, listed as 1): 4.1 | Aspect ratio (Long diameter/Short diameter) ([1]; crystal ④ of 10 selected, listed as 1): 4.4 | Aspect ratio (Long diameter/Short diameter) ([1]; crystal ⑤ of 10 selected, listed as 1): 4.5 | Aspect ratio (Long diameter/Short diameter) ([1]; crystal ⑥ of 10 selected, listed as 1): 2.2 | Aspect ratio (Long diameter/Short diameter) ([1]; crystal ⑦ of 10 selected, listed as 1): 4.3 | Aspect ratio (Long diameter/Short diameter) ([1]; crystal ⑧ of 10 selected, listed as 1): 3.6 | Aspect ratio (Long diameter/Short diameter) ([1]; crystal ⑨ of 10 selected, listed as 1): 3.5 | Aspect ratio (Long diameter/Short diameter) ([1]; crystal ⑩ of 10 selected, listed as 1): 4.1 | d [4, 3] (volume-based average particle size) ([2]; listed as 1): 472 μm | Repose angle (degrees) ([3]; listed as 1): 43.0 degrees

O=C[C@H](O)[C@H](O)[C@H](O)[C@H](O)CO [Test No. 2, D-allose]
Aspect ratio (Long diameter/Short diameter) ([1]; crystal ① of 10 selected, listed as 2): 2.9 | Aspect ratio (Long diameter/Short diameter) ([1]; crystal ② of 10 selected, listed as 2): 3.0 | Aspect ratio (Long diameter/Short diameter) ([1]; crystal ③ of 10 selected, listed as 2): 3.5 | Aspect ratio (Long diameter/Short diameter) ([1]; crystal ④ of 10 selected, listed as 2): 3.5 | Aspect ratio (Long diameter/Short diameter) ([1]; crystal ⑤ of 10 selected, listed as 2): 3.0 | Aspect ratio (Long diameter/Short diameter) ([1]; crystal ⑥ of 10 selected, listed as 2): 5.5 | Aspect ratio (Long diameter/Short diameter) ([1]; crystal ⑦ of 10 selected, listed as 2): 2.6 | Aspect ratio (Long diameter/Short diameter) ([1]; crystal ⑧ of 10 selected, listed as 2): 4.9 | Aspect ratio (Long diameter/Short diameter) ([1]; crystal ⑨ of 10 selected, listed as 2): 3.0 | Aspect ratio (Long diameter/Short diameter) ([1]; crystal ⑩ of 10 selected, listed as 2): 4.1 | d [4, 3] (volume-based average particle size) ([2]; listed as 2): 563 μm | Repose angle (degrees) ([3]; listed as 2): 42.7 degrees

O=C[C@H](O)[C@H](O)[C@H](O)[C@H](O)CO [Test No. 3, D-allose]
Aspect ratio (Long diameter/Short diameter) ([1]; crystal ① of 10 selected, listed as 3): 2.5 | Aspect ratio (Long diameter/Short diameter) ([1]; crystal ② of 10 selected, listed as 3): 5.4 | Aspect ratio (Long diameter/Short diameter) ([1]; crystal ③ of 10 selected, listed as 3): 3.9 | Aspect ratio (Long diameter/Short diameter) ([1]; crystal ④ of 10 selected, listed as 3): 6.2 | Aspect ratio (Long diameter/Short diameter) ([1]; crystal ⑤ of 10 selected, listed as 3): 4.5 | Aspect ratio (Long diameter/Short diameter) ([1]; crystal ⑥ of 10 selected, listed as 3): 4.3 | Aspect ratio (Long diameter/Short diameter) ([1]; crystal ⑦ of 10 selected, listed as 3): 3.0 | Aspect ratio (Long diameter/Short diameter) ([1]; crystal ⑧ of 10 selected, listed as 3): 4.7 | Aspect ratio (Long diameter/Short diameter) ([1]; crystal ⑨ of 10 selected, listed as 3): 6.1 | Aspect ratio (Long diameter/Short diameter) ([1]; crystal ⑩ of 10 selected, listed as 3): 1.5 | d [4, 3] (volume-based average particle size) ([2]; listed as 3): 450 μm | Repose angle (degrees) ([3]; listed as 3): 42.0 degrees

O=C[C@H](O)[C@H](O)[C@H](O)[C@H](O)CO [Test No. 4, D-allose]
Aspect ratio (Long diameter/Short diameter) ([1]; crystal ① of 10 selected, listed as 4): 4.3 | Aspect ratio (Long diameter/Short diameter) ([1]; crystal ② of 10 selected, listed as 4): 4.0 | Aspect ratio (Long diameter/Short diameter) ([1]; crystal ③ of 10 selected, listed as 4): 4.2 | Aspect ratio (Long diameter/Short diameter) ([1]; crystal ④ of 10 selected, listed as 4): 2.0 | Aspect ratio (Long diameter/Short diameter) ([1]; crystal ⑤ of 10 selected, listed as 4): 6.0 | Aspect ratio (Long diameter/Short diameter) ([1]; crystal ⑥ of 10 selected, listed as 4): 1.1 | Aspect ratio (Long diameter/Short diameter) ([1]; crystal ⑦ of 10 selected, listed as 4): 3.9 | Aspect ratio (Long diameter/Short diameter) ([1]; crystal ⑧ of 10 selected, listed as 4): 8.1 | Aspect ratio (Long diameter/Short diameter) ([1]; crystal ⑨ of 10 selected, listed as 4): 3.8 | Aspect ratio (Long diameter/Short diameter) ([1]; crystal ⑩ of 10 selected, listed as 4): 4.1 | d [4, 3] (volume-based average particle size) ([2]; listed as 4): 588 μm | Repose angle (degrees) ([3]; listed as 4): 42.3 degrees

O=C[C@H](O)[C@H](O)[C@H](O)[C@H](O)CO [Test No. 5, D-allose]
Aspect ratio (Long diameter/Short diameter) ([1]; crystal ① of 10 selected, listed as 5): 1.1 | Aspect ratio (Long diameter/Short diameter) ([1]; crystal ② of 10 selected, listed as 5): 2.7 | Aspect ratio (Long diameter/Short diameter) ([1]; crystal ③ of 10 selected, listed as 5): 3.2 | Aspect ratio (Long diameter/Short diameter) ([1]; crystal ④ of 10 selected, listed as 5): 2.9 | Aspect ratio (Long diameter/Short diameter) ([1]; crystal ⑤ of 10 selected, listed as 5): 4.7 | Aspect ratio (Long diameter/Short diameter) ([1]; crystal ⑥ of 10 selected, listed as 5): 3.0 | Aspect ratio (Long diameter/Short diameter) ([1]; crystal ⑦ of 10 selected, listed as 5): 4.9 | Aspect ratio (Long diameter/Short diameter) ([1]; crystal ⑧ of 10 selected, listed as 5): 4.1 | Aspect ratio (Long diameter/Short diameter) ([1]; crystal ⑨ of 10 selected, listed as 5): 1.6 | Aspect ratio (Long diameter/Short diameter) ([1]; crystal ⑩ of 10 selected, listed as 5): 3.8 | d [4, 3] (volume-based average particle size) ([2]; listed as 5): 498 μm | Repose angle (degrees) ([3]; listed as 5): 45.7 degrees

O=C[C@H](O)[C@H](O)[C@H](O)[C@H](O)CO [Test No. 7, D-allose]
Aspect ratio (Long diameter/Short diameter) ([1]; crystal ① of 10 selected, listed as 7): 7.2 | Aspect ratio (Long diameter/Short diameter) ([1]; crystal ② of 10 selected, listed as 7): 1.7 | Aspect ratio (Long diameter/Short diameter) ([1]; crystal ③ of 10 selected, listed as 7): 5.2 | Aspect ratio (Long diameter/Short diameter) ([1]; crystal ④ of 10 selected, listed as 7): 5.5 | Aspect ratio (Long diameter/Short diameter) ([1]; crystal ⑤ of 10 selected, listed as 7): 2.5 | Aspect ratio (Long diameter/Short diameter) ([1]; crystal ⑥ of 10 selected, listed as 7): 4.1 | Aspect ratio (Long diameter/Short diameter) ([1]; crystal ⑦ of 10 selected, listed as 7): 4.3 | Aspect ratio (Long diameter/Short diameter) ([1]; crystal ⑧ of 10 selected, listed as 7): 4.9 | Aspect ratio (Long diameter/Short diameter) ([1]; crystal ⑨ of 10 selected, listed as 7): 3.5 | Aspect ratio (Long diameter/Short diameter) ([1]; crystal ⑩ of 10 selected, listed as 7): 2.0 | d [4, 3] (volume-based average particle size) ([2]; listed as 7): 549 μm | Repose angle (degrees) ([3]; listed as 7): 41.0 degrees | Degree of fluidity ([3]; anhydrous crystals of Test Nos. 1 to 12, evaluated from repose angle according to Table 4): Passable (41~45)
